Structures can show the parent of a compound that is named as a salt.
Key:
[1] = molecular target: [^3 H]-LTB4 binding to guinea pig lung membranes (Cavia porcellus, UniProt H0VYV8); test: Inhibition of [^3 H]LTB4 Binding to Guinea Pig Lung Membranes; settings: approximately 140 pM [^3 H]-LTB4, 45 minutes at 30° C., pH 6.5, mean -log Ki, read-out: Inhibition of [^3 H]LTB4 Binding to Guinea Pig Lung Membranes pKi (converted)
[2] = molecular target: leukotriene B4 specific receptor on the membrane of human neutrophils (Homo sapiens, UniProt Q15722); test: biochemical; settings: 0.1-0.2 nM ^3 H-LTB4, 10 minutes at 4° C., read-out: Inhibition of [^3 H]LTB4 Binding to Human Neutrophils IC50
Description: The effectiveness of compounds to inhibit the binding of leukotriene B4 to a specific receptor on the membrane of human neutrophils was measured by using an adaptation of a radio-ligand binding assay developed by Goldman and Goetzl, J. Immunol., 129, 1600 (1982). Other investigators have developed similar assays (see, e.g., Kreisle, et al., J. Exp. Med., 157, 628 (1983) and Lin, et al., Prostaglandins, 28, 837 (1984)).
Cells used in the assay were isolated by standard techniques of centrifugation on Ficoll-Hypaque, dextran 70 sedimentation and hypotonic lysis. The following procedure was used. Freshly-prepared buffy coat layers from two individuals were obtained from a local blood donor center. The cells were mixed and diluted to 484 ml with phosphate buffered saline containing heparin (10 units/ml) and heat-inactivated calf serum (5%). This was divided into 20 ml aliquots and the aliquots layered on top of Ficoll-Paque (12 ml). The material was then centrifuged at 500 g for 40 minutes at room temperature. The resulting upper layer of platelets and mononuclear cells was discarded. The lower layer containing erythrocytes and neutrophils was retained. Buffer was added (1 ml per 4 ml of lower layer) and the suspension mixed. For each milliliter of this mixture, 0.33 ml of 6% Macrodex was added. After stirring the cells were allowed to sediment for 1 hour at 37° C. The resulting erythrocyte pellet was discarded and the neutrophil enriched supernatant fluid centrifuged at 500 g for 10 minutes at 4° C. […] Subsequently, the volume was made up to 50 ml by addition of ice-cold buffer and the cells resuspended. The suspension was then centrifuged at 300 g for 10 minutes at 4° C. […] This buffer consisted of Hanks' balanced salt solution and 0.1% ovalbumin (pH 7.3).
The amount of bound ^3 H-LTB4 was then measured and compared with the amount bound in the absence of test compound. The assay was carried out in microcentrifuge tubes by adding first 10 μl test compound dissolved in DMSO, followed by adding 20 μl ^3 H-LTB4 diluted in assay buffer, and finally adding 500 μl of the cell suspension. At the end of the 10 minutes incubation, 300 μl of a mixture of dibutyl and dinonyl phthalate (7:2) were added and the tubes centrifuged for 2 minutes in a microcentrifuge. The radioactivity bound to the cell pellet was measured by scintillation spectroscopy.

[^3 H]-LTB4 binding to guinea pig lung membranes, sequence (H0VYV8 1-348): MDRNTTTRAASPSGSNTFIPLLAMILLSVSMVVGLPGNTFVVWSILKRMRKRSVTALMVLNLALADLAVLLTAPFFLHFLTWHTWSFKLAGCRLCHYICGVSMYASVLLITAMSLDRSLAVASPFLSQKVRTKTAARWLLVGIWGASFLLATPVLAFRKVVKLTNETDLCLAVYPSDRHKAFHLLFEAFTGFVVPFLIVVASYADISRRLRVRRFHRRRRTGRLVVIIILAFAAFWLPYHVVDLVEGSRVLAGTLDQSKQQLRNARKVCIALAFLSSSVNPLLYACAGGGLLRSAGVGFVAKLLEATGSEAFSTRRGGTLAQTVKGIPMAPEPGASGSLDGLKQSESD
leukotriene B4 specific receptor on the membrane of human neutrophils, sequence (Q15722 whole entry): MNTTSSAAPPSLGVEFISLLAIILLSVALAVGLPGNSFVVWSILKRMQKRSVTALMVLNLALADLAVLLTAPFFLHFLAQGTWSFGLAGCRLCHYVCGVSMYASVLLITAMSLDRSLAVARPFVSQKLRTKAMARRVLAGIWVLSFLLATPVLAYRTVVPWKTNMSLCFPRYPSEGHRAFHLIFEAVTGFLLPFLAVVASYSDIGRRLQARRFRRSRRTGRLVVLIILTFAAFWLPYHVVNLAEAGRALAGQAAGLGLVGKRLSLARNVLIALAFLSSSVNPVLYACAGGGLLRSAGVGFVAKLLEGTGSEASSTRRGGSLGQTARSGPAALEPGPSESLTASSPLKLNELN

SMILES | Ki [1] | IC50 [2]
CCCc1c(OCCCOc2cc(O)c(C(C)=O)cc2CC)ccc2c1OC(C(=O)O)CC2 (centres unmarked) [Example 1, 7-[3-(4-acetyl-2-ethyl-5-hydroxyphenoxy)propoxy]-3,4-dihydro-8-propyl-2H-1-benzopyran-2-carboxylic acid] | 8.13 nM | 
CCCc1c(OCCCOc2cc(O)c(C(C)=O)cc2CC)cccc1OCC(=O)O [Example 3, 2-[2-propyl-3-[[3-(4-acetyl-2-ethyl-5-hydroxyphenoxy)proyl]oxy]phenoxy]acetic acid] | 4.79 nM | 67 nM
CCCc1c(OCCCOc2cc(O)c(C(C)=O)cc2CC)cccc1OC(C)C(=O)O (centres unmarked) [Example 4, 2-[3-[3-(4-acetyl-2-ethyl-5-hydroxyphenoxy)propoxy)-2-propylphenoxy]propanoic acid] | 15.1 nM | 23 nM
CCCc1c(OCCCOc2cc(O)c(C(C)=O)cc2CC)cccc1OC(CC)C(=O)O (centres unmarked) [Example 5, 2-[3-[3-(4-acetyl-2-ethyl-5-hydroxyphenoxy)propoxy)-2-propylphenoxy]butanoic acid] | 13.8 nM | 
CCCc1c(OCCCOc2cc(O)c(C(C)=O)cc2CC)c(I)cc2c1OC(C(=O)O)CC2 (centres unmarked) [Example 6, 6-iodo-8-propyl-7-[3-[4-acetyl-2-ethyl-5-hydroxyphenoxy)propoxy]-3,4-dihydro-2H-1-benzopyran-2-caroxylic acid] | 25.7 nM | 327 nM
CCc1cc(C(C)=O)c(O)cc1OCCCOc1ccc2c(=O)c3cc(C(=O)O)ccc3oc2c1 [Example 7, 6-[3-(4-acetyl-2-ethyl-5-hydroxyphenoxy)propoxy]-9-oxo-9H-xanthene-2-carboxylic acid disodium salt sesquihydrate] | 741 nM | 190 nM
CCc1cc(C(C)=O)c(O)cc1OCCCOc1ccc2oc3ccccc3c2c1CCC(=O)O [Example 8, 3-[1-[2-[3-(4-acetyl-2-ethyl-5-hydroxyphenoxy)propoxy]dibenzofuran]]propanoic acid disodium salt] | 2.04 nM | 43 nM
CCCc1cc(Oc2cccc(C(=O)O)c2)ccc1OCCCOc1cc(O)c(C(C)=O)cc1CC [Example 9, 3-[3-propyl-4-[3-(4-acetyl-2-ethyl-5-hydroxyphenoxy)propoxy]phenoxy]benzoic acid disodium salt] | 257 nM | 158 nM
CCc1cc(C(C)=O)c(O)cc1OCCCOc1ccc(-c2ccccc2)cc1CCC(=O)O [Example 11, 3-[1-[5-phenyl-2-[3-(4-acetyl-2-ethyl-5-hydroxyphenoxy)propoxy]phenyl]]propanoic acid disodium salt] | 28.2 nM | 115 nM
CCc1cc(C(C)=O)c(O)cc1OCCCOc1cccc(Oc2ccccc2C(=O)O)c1 [Example 13, 2-[3-[3-(4-acetyl-2-ethyl-5-hydroxyphenoxy)propoxy]phenoxy]benzoic acid disodium salt hemihydrate] | 182 nM | 291 nM
CCc1cc(C(C)=O)c(O)cc1OCCCOc1cccc(Oc2cccc(C(=O)O)c2)c1 [Example 14, 3-[3-[3-(4-acetyl-2-ethyl-5-hydroxyphenoxy)propoxy]phenoxy]benzoic acid disodium salt hemihydrate] | 174 nM | 456 nM
CCc1cc(C(C)=O)c(O)cc1OCCCOc1ccc2c(=O)c3cc(C(=O)O)ccc3oc2c1CCC(=O)O [Example 15, 3-[4-[7-carboxy-3-[3-(4-acetyl-2-ethyl-5-hydroxyphenoxy)propoxy]-9-oxo-9H-xanthene]]propanoic acid trisodium salt trihydrate] | 0.977 nM | 
CCc1cc(C(C)=O)c(O)cc1OCCCOc1ccc2ccc(OCC(=O)O)cc2c1 [Example 16, [2-[7-[3-(4-Acetyl-2-ethyl-5-hydroxyphenoxy)propoxy]naphthalenyl]oxy]acetic acid sodium salt hydrate] | 117 nM | 409 nM
CCCc1c(OCCCOc2cc(O)c(C(C)=O)cc2CC)cccc1OCc1ccccc1C(=O)O [Example 17, 2-[[3-[3-(4-acetyl-2-ethyl-5-hydroxyphenoxy)propoxy]-2-propylphenoxy]methyl]benzoic acid disodium salt hemihydrate] | 170 nM | 127 nM
CCCc1c(OCCCCOc2cc(O)c(C(C)=O)cc2CC)cccc1Oc1ccccc1C(=O)O [Example 18, 2-[3-[4-(4-Acetyl-2-ethyl-5-hydroxyphenoxy)butoxy]-2-propyl-phenoxy]benzoic acid disodium salt] | 53.7 nM | 94 nM
CCCc1c(OCCCOc2cc(O)c(C(C)=O)cc2CC)cccc1Oc1ccccc1C(=O)O [Example 19, 2-[3-[3-(4-Acetyl-2-ethyl-5-hydroxyphenoxy)propoxy]-2-propylphenoxy]benzoic acid disodium salt hydrate] | 34.7 nM | 24 nM
CCc1cc(C(C)=O)c(O)cc1OCCCOc1ccc(C(=O)c2cccc(C(=O)O)c2)cc1CCC(=O)O [Example 20, 3-[1-[2-[3-(4-acetyl-2-ethyl-5-hydroxyphenoxy)propoxy]-5-(3-carboxybenzoyl)phenyl]]propanoic acid trisodium salt hydrate] | 6.61 nM | 46 nM
CCCc1cc(Oc2ccc(C(=O)O)cc2)ccc1OCCCOc1cc(O)c(C(C)=O)cc1CC [sodium salt hydrate] | 1000 nM | 326 nM
CCc1cc(C(C)=O)c(O)cc1OCCCOc1ccc(Oc2ccc(C(=O)O)cc2)cc1 [sodium salt hydrate] | 132 nM | 193 nM
